# Entries after “also recorded” stand apart in the source; their conditions may differ.
# Columns and labels:
# [1] = tested on: DIPG-IV cells overexpressing ERK5 and constitutively active ERK5; experiment: EC50 of TG02 in DIPG-IV cells expressing ERK5-HA or ERK5-HA T733E; type: cell-based, human
# Method: (§1) Direct cell counts were performed using the Countess II FL Automated Cell Counter (ThermoFisher Scientific). Alamar blue viability (ThermoFisher Scientific) and the 5-bromo-2′-deoxyuridine (BrdU) incorporated cell proliferation assay (Cell Signaling Technology Cat #6813) were performed using the manufacturer's standard protocol. EC50 curve analysis was performed using raw fluorescent Alamar blue values that were inputted into PRISM 7.0. Drug concentrations were log 10 transformed and values normalized to percent viability with respect to vehicle treated cells. EC50 values were interpolated from a log inhibitor vs. normalized response with variable slope using a least square fit model.
# [2] = molecular target: Kit (Homo sapiens, UniProt P10721); settings: cited from earlier work
# [3] = tested on: MYCN in DIPG-13p cells; experiment: MYCN transcript (qRT-PCR) and protein (Western blot); type: cell-based, human; settings: DIPG-13p cells (MYCN amplification)
# Method: FIG. 14E provides Western blot confirming MYCN protein levels decrease in DIPG-13p cells from FIG. 14E.
# Total RNA isolation was performed using an RNA extraction kit according to the manufacturer's instructions (RNeasy kit, Qiagen). cDNA was synthesized from 100 ng of total RNA using the Quantitect RT kit which included DNAse treatment (Qiagen). Quantitative real-time PCR was performed on 10 ng of cDNA template in a final volume of 20 μl using the Chromo4 Real Time PCR detector (MJ Research, a Division of Bio-Rad Laboratories Ltd) using SYBR green fluorescence. RT-PCR data was analyzed using Opticon Monitor 3.1.3 analysis software. Data analysis was done using the delta CT method with HPRT1 as a reference/control gene. Specific Primers are available in Table 4.
# [4] = molecular target: CDK4 (Homo sapiens, UniProt P11802); settings: cited from earlier work
# Sequence of CDK4 (P11802 whole entry): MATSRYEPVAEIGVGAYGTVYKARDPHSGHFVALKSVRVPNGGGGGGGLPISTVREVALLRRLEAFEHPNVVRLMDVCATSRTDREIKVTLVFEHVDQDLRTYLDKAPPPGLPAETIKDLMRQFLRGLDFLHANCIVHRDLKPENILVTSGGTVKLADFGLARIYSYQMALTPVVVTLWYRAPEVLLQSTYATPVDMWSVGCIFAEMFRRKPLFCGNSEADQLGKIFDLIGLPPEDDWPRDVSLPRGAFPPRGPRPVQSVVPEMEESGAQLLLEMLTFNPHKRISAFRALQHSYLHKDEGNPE
# Sequence of CDK4 (P24385 whole entry partner): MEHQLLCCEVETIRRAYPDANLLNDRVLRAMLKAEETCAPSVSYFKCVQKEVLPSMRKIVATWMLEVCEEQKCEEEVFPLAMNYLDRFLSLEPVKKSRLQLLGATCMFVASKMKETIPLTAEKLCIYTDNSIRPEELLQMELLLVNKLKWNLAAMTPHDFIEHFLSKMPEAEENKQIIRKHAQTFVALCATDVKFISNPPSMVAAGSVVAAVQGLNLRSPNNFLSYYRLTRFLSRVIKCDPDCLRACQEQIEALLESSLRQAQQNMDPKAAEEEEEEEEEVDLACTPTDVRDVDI
# [5] = tested on: DIPG-IV cells expressing MYC S62D; experiment: EC50 of TG02 in DIPG-IV cells expressing MYC S62D; type: cell-based, human; settings: MYC S62D vs empty vector control
# Method: as §1
# [6] = tested on: SF8628 intracranial xenografts; experiment: SF8628 orthotopic xenograft model; type: in vivo, mice; settings: for KI-67 staining (proliferation marker): 20 mg/kg, vs vehicle
# Method: All animal procedures were carried out ethically according to animal user protocols approved by Institutional Animal Care Committee (IACUC). 4-6 week-old non-obese diabetic severe combined immune deficiency male or female mice (NOD-SCID-Prkdc^scid) were injected with 1×10^5 SU-DIPG-13p cells or 1×10^5 SF8628 DIPG cells. Cells were re-suspended in 2 μl of PBS and injected into the pons/midbrain using a stereotactic frame (Stoelting) and automated cell injector (Stoelting) with cells delivered over 4 minutes. Coordinates were as follows from the Lambda suture (x=0.8 mm, y=−0.8 mm, z=−5.0 mm). […] Mice were treated for two cycles (5 days on, with two days off per cycle). Mice were sacrificed at sign of neurological duress and brains were extracted and fixed in 4% PFA.
# Also, the present disclosure used two established cell lines derived from transgenic mouse models of DIPG. Both lines are p53 null and express PDGFB, differing only in their H3.3 mutation status.
# In a first DIPG mouse model, NOD-SCID gamma mice were injected with 2×10^5 SF8628 cells in the midbrain.
# For each cycle, the compounds were administered 20 mg/kg/day for 5 days, followed with 2 days of rest period. Each mice received 2 cycles of treatment.
# [7] = molecular target: PDK1 (Homo sapiens, UniProt O15530); settings: cited from earlier work
# Sequence of PDK1 (O15530 whole entry): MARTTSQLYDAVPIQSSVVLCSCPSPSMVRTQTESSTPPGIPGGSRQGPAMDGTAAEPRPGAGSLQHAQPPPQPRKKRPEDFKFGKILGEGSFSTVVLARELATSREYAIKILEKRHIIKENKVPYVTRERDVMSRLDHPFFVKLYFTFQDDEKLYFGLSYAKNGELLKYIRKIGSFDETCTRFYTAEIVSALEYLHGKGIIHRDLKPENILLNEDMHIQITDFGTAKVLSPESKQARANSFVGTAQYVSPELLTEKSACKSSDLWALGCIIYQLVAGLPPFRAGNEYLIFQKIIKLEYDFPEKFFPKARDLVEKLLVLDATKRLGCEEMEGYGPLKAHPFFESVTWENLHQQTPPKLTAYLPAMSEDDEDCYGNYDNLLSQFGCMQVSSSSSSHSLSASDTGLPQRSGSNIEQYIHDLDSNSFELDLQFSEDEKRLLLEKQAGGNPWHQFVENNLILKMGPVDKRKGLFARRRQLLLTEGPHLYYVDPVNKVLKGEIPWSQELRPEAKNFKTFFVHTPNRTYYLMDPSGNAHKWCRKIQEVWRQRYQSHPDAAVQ
# [8] = molecular target: TYK2 (Homo sapiens, UniProt P29597); settings: Source Invitrogen; 10-point titration in duplicates, done once; cited from earlier work
# Sequence of TYK2 (P29597 whole entry): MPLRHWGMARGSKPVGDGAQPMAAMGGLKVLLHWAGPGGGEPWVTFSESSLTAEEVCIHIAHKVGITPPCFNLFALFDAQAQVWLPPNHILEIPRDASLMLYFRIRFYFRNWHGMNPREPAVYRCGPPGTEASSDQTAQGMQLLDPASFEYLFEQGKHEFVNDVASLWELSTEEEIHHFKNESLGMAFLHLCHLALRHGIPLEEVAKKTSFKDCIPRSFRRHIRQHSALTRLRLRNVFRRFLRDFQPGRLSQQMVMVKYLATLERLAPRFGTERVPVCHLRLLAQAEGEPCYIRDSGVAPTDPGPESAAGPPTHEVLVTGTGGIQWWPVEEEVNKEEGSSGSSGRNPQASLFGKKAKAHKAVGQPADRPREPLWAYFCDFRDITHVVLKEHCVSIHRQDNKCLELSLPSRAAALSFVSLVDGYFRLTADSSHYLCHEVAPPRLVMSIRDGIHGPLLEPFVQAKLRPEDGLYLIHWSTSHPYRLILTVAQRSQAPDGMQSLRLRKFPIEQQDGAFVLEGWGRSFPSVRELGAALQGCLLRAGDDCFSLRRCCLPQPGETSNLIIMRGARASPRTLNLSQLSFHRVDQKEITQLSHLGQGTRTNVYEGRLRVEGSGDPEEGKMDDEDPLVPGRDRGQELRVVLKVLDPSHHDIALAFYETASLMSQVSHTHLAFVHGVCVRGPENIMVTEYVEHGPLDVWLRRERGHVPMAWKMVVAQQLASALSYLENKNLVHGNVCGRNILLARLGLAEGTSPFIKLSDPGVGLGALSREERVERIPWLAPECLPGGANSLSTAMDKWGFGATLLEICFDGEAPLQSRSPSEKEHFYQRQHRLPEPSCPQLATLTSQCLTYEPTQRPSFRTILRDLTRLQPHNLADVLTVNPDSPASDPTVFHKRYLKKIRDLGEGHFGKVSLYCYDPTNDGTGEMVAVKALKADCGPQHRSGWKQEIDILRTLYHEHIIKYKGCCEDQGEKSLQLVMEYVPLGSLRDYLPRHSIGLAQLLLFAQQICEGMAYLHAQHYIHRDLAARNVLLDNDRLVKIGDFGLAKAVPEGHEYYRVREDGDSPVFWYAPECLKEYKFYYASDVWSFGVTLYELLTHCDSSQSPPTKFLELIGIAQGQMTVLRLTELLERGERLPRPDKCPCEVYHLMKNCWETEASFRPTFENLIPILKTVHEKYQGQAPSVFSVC
# [9] = molecular target: PRAK (Homo sapiens, UniProt Q8IW41); settings: cited from earlier work
# [10] = molecular target: ZAP-70 (Homo sapiens, UniProt P43403); settings: cited from earlier work
# Sequence of ZAP-70 (P43403 whole entry, species assumed): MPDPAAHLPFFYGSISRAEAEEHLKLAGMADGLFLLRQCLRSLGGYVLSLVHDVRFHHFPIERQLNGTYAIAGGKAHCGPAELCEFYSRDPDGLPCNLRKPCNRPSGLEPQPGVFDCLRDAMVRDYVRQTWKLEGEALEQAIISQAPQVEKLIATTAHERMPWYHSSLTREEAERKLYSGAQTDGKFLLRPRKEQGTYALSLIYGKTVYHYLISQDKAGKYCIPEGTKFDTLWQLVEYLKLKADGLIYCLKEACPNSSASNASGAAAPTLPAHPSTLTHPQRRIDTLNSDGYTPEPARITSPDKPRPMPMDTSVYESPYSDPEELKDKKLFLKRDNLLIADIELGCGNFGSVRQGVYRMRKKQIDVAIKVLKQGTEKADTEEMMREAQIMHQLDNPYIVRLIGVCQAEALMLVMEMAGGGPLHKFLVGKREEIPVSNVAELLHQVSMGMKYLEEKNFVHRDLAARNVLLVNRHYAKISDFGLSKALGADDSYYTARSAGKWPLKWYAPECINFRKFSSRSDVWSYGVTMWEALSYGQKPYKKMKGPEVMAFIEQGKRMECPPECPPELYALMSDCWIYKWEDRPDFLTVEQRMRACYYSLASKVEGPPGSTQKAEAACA
# [11] = molecular target: FAK (Homo sapiens, UniProt Q05397); settings: cited from earlier work
# Sequence of FAK (Q05397 whole entry): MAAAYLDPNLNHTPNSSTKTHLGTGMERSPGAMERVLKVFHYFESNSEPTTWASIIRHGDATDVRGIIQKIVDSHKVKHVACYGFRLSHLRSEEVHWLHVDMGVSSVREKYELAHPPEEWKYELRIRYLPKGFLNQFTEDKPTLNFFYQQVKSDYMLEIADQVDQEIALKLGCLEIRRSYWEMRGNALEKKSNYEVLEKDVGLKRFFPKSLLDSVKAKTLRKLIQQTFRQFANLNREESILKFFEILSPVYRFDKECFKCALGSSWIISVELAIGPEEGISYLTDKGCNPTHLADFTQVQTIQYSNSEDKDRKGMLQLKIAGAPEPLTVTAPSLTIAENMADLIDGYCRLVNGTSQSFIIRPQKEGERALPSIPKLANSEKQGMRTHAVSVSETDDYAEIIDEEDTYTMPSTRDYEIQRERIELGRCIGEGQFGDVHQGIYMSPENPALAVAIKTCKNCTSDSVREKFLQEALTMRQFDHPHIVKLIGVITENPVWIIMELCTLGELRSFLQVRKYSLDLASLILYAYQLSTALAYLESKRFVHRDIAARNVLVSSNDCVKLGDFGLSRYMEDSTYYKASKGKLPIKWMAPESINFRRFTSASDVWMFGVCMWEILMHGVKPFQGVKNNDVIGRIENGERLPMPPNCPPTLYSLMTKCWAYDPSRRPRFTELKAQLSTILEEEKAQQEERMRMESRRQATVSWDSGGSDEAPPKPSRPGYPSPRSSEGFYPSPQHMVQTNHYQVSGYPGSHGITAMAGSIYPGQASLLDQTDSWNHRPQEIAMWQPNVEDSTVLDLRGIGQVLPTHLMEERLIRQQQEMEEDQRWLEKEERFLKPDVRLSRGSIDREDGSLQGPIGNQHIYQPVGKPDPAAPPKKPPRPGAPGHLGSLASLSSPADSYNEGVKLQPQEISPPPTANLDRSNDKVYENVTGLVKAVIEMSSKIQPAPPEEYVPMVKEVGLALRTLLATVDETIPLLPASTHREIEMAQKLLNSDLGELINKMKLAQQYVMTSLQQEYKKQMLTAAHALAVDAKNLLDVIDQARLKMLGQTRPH
# [12] = molecular target: InsR (Homo sapiens, UniProt P06213); settings: cited from earlier work
# [13] = molecular target: DYRKIB (Homo sapiens, UniProt Q9Y463); settings: cited from earlier work
# Sequence of DYRKIB (Q9Y463 whole entry): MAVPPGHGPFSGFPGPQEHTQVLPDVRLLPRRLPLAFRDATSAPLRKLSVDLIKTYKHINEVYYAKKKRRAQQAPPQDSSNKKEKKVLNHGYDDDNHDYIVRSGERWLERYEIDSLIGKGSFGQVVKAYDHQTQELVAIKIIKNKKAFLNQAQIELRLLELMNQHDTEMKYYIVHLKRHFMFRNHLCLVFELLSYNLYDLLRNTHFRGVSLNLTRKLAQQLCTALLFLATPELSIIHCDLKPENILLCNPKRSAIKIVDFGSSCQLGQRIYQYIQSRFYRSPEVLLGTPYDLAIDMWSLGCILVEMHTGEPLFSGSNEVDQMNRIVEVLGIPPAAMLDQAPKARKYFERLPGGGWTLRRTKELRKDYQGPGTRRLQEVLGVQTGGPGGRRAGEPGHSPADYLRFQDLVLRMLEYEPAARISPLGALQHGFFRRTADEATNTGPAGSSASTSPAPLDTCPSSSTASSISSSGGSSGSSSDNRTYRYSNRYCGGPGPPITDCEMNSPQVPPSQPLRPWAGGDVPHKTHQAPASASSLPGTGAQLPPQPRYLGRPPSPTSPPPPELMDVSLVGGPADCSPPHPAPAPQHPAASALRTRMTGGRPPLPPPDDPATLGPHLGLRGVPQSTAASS
# [14] = tested on: tumor cells (DIPG); experiment: cell viability with TG02 and radiation (cell count/trypan blue); type: cell-based; settings: day 5
# Method: Cells were plated on day 1 (1×10^6). […] On day 5, cell viability were measured by cell count/trypan blue assay on thermo cell countess machines. For fractionated rad, additional 1.8 Gy doses were given on days 3 and 4. […] Therefore, the combination of TG02 and radiation can provide significant, synergistic benefits for treating DIPG as compared to when TG02 and radiation are administered alone.
# [15] = molecular target: CK1α1 (Homo sapiens, UniProt P48729); settings: cited from earlier work
# Sequence of CK1α1 (P48729 whole entry): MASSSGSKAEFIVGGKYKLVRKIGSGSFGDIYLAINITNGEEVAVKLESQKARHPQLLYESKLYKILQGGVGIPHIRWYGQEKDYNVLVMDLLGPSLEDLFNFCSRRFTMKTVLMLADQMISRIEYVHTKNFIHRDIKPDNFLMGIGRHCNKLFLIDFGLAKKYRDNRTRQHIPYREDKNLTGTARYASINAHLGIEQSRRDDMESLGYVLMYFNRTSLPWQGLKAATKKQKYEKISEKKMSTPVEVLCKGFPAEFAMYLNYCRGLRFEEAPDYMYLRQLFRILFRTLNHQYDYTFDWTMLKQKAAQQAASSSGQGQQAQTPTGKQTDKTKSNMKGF
# [16] = cited from earlier work
# [17] = tested on: ERK5 phosphorylation in DIPG-007 and DIPG-IV cells; experiment: Western blot of ERK5 phosphorylation in DIPG cells; type: cell-based, human; settings: 50 nM
# Method: Cell pellets were lysed in PLC lysis buffer containing protease and phosphatase inhibitors (Roche Inc.). Protein lysates were quantified using the bicinchoninic acid (BCA) assay (Pierce Chemical Co., Rockford, Ill.). 30 μg of total protein lysate was loaded in 10% SDS-PAGE gels and electrophoresed. Proteins were transferred to PVDF membranes using a semi-dry transfer apparatus (Bio-Rad). Membranes were blocked for one hour and probed for various proteins overnight in 5% non-fat milk or 5% BSA in Tris Buffered Saline Solution, 0.5% Tween-20 (TBST) or Phosphate Buffered Saline Solution with 0.5% Tween-20 (PBST). Membranes were washed for 5 mins in TBST (3×) and incubated with horseradish peroxidase-conjugated antibodies specific for the primary antibody (BioRad Laboratories, Inc., CA, USA). Binding was detected using Chemiluminescence Reagent Plus (PerkinElmer Inc., MA, USA).
# [18] = molecular target: ERK5 (Homo sapiens, UniProt Q13164); experiment: in vitro kinase assay of purified recombinant ERK5 and MYC; type: biochemical; settings: ERK5 and ATP, 30 minutes at 30° C.
# Method: Purified active recombinant ERK5 protein was purchased from ThermoFisher Scientific (Cat #A32872) and purified recombinant MYC was purchased from Abcam (Cat #ab84132). Purified ERK5 and MYC were resuspended in 40 μl of 1× kinase buffer supplemented with […] ATP, 0.25 μg substrate, and 1.0 μg purified recombinant and active kinase. Samples were incubated in the presence or absence of an ERK5 inhibitor for 30 minutes at 30° C. The reaction was terminated with 20 μl 3×SDS sample buffer. Samples were then boiled at 100° C. for 5 minutes and then evaluated by western blotting using a phospho MYC ser62 antibody (1:1000). 1× Kinase Buffer recipe: 25 mM Tris (pH 7.5), 5 mM O-glycerophosphate, 2 mM DTT, 0.1 mM Na3VO4, 10 mM MgCl2.
structure (smiles),measurement,setting,value
"CN1C/C=C/CCOc2cccc(c2)-c2ccnc(n2)Nc2cccc(c2)C1 [TG02, (16E)-14-methyl-20-oxa-5,7,14,27-tetraazatetracyclo[19.3.1.12,6.18,12]heptacosa-1(25),2(27),3,5,8(26),9,11,16,21,23-decaene]",EC50,"[1]; Homo sapiens, read-out: EC50 to treatment with TG02, overexpression of ERK5 and constitutively active ERK in DIPG-IV cells",> 1000 nM
same,cleaved Caspase 3/7 levels,"[1]; TG02 100 nM, ERK5-HA or ERK5-HA T733E vs empty vector",reduced cleaved Caspase 3/7 levels
same,inhibition at 100 nm,[2],less than 50%
same,MYCN protein and transcript levels,[3],MYCN protein and transcriptional down-regulation
same,inhibition at 100 nm,[4],less than 50%
same,resistance to TG02,[5],promoted resistance to TG02
same,KI-67 staining (proliferation marker),[6]; 2 cycles,reduced KI-67 staining
same,KI-67 staining (proliferation marker),"[6]; 2 cycles, listed as TG02 obtained from Adastra Pharmaceuticals",significantly reduced KI67 expression; also recorded: significantly reduced K167 expression
same,survival vs vehicle,"[6]; 20 mg/kg/day for 5 days, 2 days rest, 2 cycles",statistically significant increased median survival
same,median survival,"[6]; TG02 20 mg/kg, 2 cycles of 5 days on 2 days off, vehicle 33 days",59 days
same,extension of median survival time,[6]; mice intracranially engrafted with DIPG cells,nearly two-fold
same,inhibition at 100 nm,[7],less than 50%
same,IC50,[8],14 nM
same,inhibition at 100 nm,[9],less than 50%
same,inhibition at 100 nm,[10],less than 50%
same,inhibition at 100 nm,[11],less than 50%
same,inhibition at 100 nm,[12],less than 50%
same,inhibition at 100 nm,[13],less than 50%
same,"tumor cell viability, TG02 alone",[14]; vehicle control about 100%,50%
same,"tumor cell viability, TG02 and radiation",[14]; radiation 3 fractions of 1.8 Gy,about 25%
same,inhibition at 100 nm,[15],less than 50%
same,inhibition at 100 nm,[16],less than 50%
same,ERK5 Thr218/Tyr220 phosphorylation (regulated by MEK5),[17],did not inhibit
same,ERK5 auto-phosphorylation and ERK5 activity sites (Ser731 and Thr733),[17],confirmed to inhibit
same,phosphorylation of MYC(S62) by ERK5,[18],inhibited

# From patent US11173160B2 (UNIVERSITY OF PITTSBURGH—OF THE COMMONWEALTH SYSTEM OF …, priority 2019, dated 2021)
